Measurements: ChEMBL document CHEMBL5608235, “Tricyclic Benzo[1,3]oxazinyloxazolidinones as Potent Antibacterial Agents against Drug-Resistant Pathogens” (J Med Chem, 2024)
In brackets after ≈: the same amount, converted by molar mass. Activity calls are given as the source filed them. No cut-off for these calls is given here.

Key:
[1] = AUC (0 to infinity) in BALB/c mouse at 1 mg/kg,iv administration measured upto 24 hrs by LC-MS/MS analysis; format: ADME, organism-based; settings: BALB/c, in vivo
[2] = AUC (0 to infinity) in BALB/c mouse at 10 mg/kg,po administration measured upto 24 hrs by LC-MS/MS analysis; format: ADME, organism-based; settings: BALB/c, in vivo
[3] = MRT (0 to t) in BALB/c mouse at 1 mg/kg,iv administration measured upto 24 hrs by LC-MS/MS analysis; format: ADME, organism-based; settings: in vivo
[4] = MRT (0 to infinity) in BALB/c mouse at 1 mg/kg,iv administration measured upto 24 hrs by LC-MS/MS analysis; format: ADME, organism-based; settings: in vivo
Staphylococcus aureus [5] = experiment: Antibacterial activity against daptomycin/methicillin resistant Staphylococcus aureus assessed as inhibition of bacterial growth incubated for 7 days by alamar blue assay; format: functional; settings: 168 h, time 7 day
Staphylococcus aureus [6] = experiment: Antibacterial activity against methicillin resistant Staphylococcus aureus ATCC 33592 infected in cyclophosphamide-induced immunosuppressed Kunming mouse by measuring survival rate of mouse at 10 mg/kg,po administration measured for 7 days; format: functional; settings: ATCC 33592, 168 h, time 7 day
Staphylococcus aureus [7] = experiment: Antibacterial activity against methicillin resistant Staphylococcus aureus ATCC 33592 infected in cyclophosphamide-induced immunosuppressed Kunming mouse assessed as increase in body weight at 10 to 50 mg/kg,po administration measured for 7 days; format: functional, organism-based; settings: dose 10-50 mg/kg, time 7.0 day
Staphylococcus aureus [8] = experiment: (§1) Antibacterial activity against methicillin resistant Staphylococcus aureus ATCC 33592 infected in cyclophosphamide-induced immunosuppressed Kunming mouse assessed as reduction in histopathological change in spleen at 50 mg/kg,po administration measured after 24 hrs by hematoxylin and eosin staining based microscopy; format: functional, organism-based
Staphylococcus aureus [9] = experiment: as §1, with “congestion” for “histopathological change”; format: functional, organism-based
Staphylococcus aureus [10] = experiment: as §1, with “pigment deposition” for “histopathological change”; format: functional, organism-based
Cell membrane [11] = experiment: Disruption of cell membrane integrity in methicillin resistant Staphylococcus aureus ATCC 33592 assessed as increase in red fluorescence at 1 ug/ml incubated for 1 hr by […] and propidium iodide double staining based confocal microscopic analysis; format: cell membranes; settings: dose 1.0 µg/ml
Cell membrane [12] = experiment: Disruption of cell membrane in methicillin resistant Staphylococcus aureus ATCC 33592 assessed as damage in bacterial cell envelope at 0.5 ug/ml incubated for 30 mins by Scanning electron microscopic analysis; format: cell membranes; settings: dose 0.5 µg/ml
Cell membrane [13] = experiment: Disruption of cell membrane in methicillin resistant Staphylococcus aureus ATCC 33592 assessed as change in morphology at 0.5 ug/ml incubated for 30 mins by Scanning electron microscopic analysis; format: cell membranes; settings: dose 0.5 µg/ml
[14] = Free AUC in BALB/c mouse at 10 mg/kg,po administration measured upto 24 hrs by LC-MS/MS analysis; format: ADME, organism-based; settings: in vivo

CC(=O)NC[C@@H]1OC(=O)N2Cc3cc(-c4ccc(C#N)cc4)c(F)cc3O[C@@H]12
AUC(0-inf) [1]: 5130 ng·h/mL | AUC(0-inf) [2]: 83500 ng·h/mL | MRT last at 24 h [3]: 6.6 h | MRT inf [4]: 6.7 h | MIC (Staphylococcus aureus [5]): 1 µg/mL (≈ 2.62 µM) | survival at 10 mg/kg (Staphylococcus aureus [6]): 85.7% | Activity (Staphylococcus aureus [7]): Active | Activity (Staphylococcus aureus [8]): Active | Activity (Staphylococcus aureus [9]): Active | Activity (Staphylococcus aureus [10]): Active | Activity (Cell membrane [11]): Active | Activity (Cell membrane [12]): Active | Activity (Cell membrane [13]): Active | fAUC [14]: 14940 ng·h/mL
